These results are taken from patent publication US5164406A, “Method for enhancing transdermal penetration and compositions useful therein” (priority 1989, dated 1992).

The procedure of the data set: Polyoxyethylene stearyl ethers, 3 wt. %
Polyoxypropylene fatty alcohol ethers, 3 wt. %
Deionized water, 94 wt. %
Further, in all cases, unless otherwise noted, the tests were carried out at 37° C. and results were compared to penetration data for the same material in the oil/water emulsion base. Moreover, all percentages of composition components recited are, unless otherwise indicated, weight percent (wt. %) and are based upon the total weight of the composition.
The test method is carried out as follows:
A. Prior to testing, rats are routinely acclimated to the laboratory environment for seven days and gross observations are made to ensure good health of the animals to be tested.
B. Female Sprague Dawley rats (190-240 gm) are selected for testing and identified by cage label and ear tag number.
C. Diffusion Cell Preparation.
1. An O-ring is placed on a standard Franz Diffusion Cell. A stir bar is placed in the receptor compartment. Each cell is filled with approximately 4.5 ml sterile physiologic saline (receptor compartments are calibrated to contain 5.0 ml).
2. The jacketed diffusion cells are maintained at 37° C.±1° (or alternatively desired temperature) using an external water bath and a circulating pump.
D. Skin Section Preparation and Mounting
1. Test animals are sacrificed by intraperitoneal injection of 0.4 ml/100 gm. body weight sodium pentobarital (1 gm/ml).
2. The backs are lightly shaved using electric hair clippers.
3. A section of skin, measuring approximately 8 cm long by 7 cm wide, is removed from the back of each rat using a No. 20 scalpel assuring that the skin section is free from subcutaneous fat.
4. A piece of the skin section is mounted over an O-ring on the diffusion cell, epidermal side facing up. The donor compartment is placed on top of the skin section making a complete seal over the skin. A clamp is used to secure the skin section in place.
5. Air bubbles that collect under the skin are removed by inverting the diffusion cell and tapping it gently. The receptor compartment is filled with sterile physiologic saline to 5.0 ml.
E. Application of Test Materials
1. Test and control materials are applied to the skin using s syringe or spatula. The material is spread evenly and completely over the exposed skin surface using the tip of the syringe/spatula.
1. An HPLC carousel is loaded with microvials. Springs and inserts are placed into the microvials.
2. Receptor compartments are sampled at desired time intervals using a microliter (μl) syringe. The sample (approximately 160 μl) is placed into the insert. The microvial is sealed with a plastic cap.
3. When multiple sampling is required, the receptor compartment is replenished with sterile physiologic saline to maintain a 5.0 ml volume.
Samples are analyzed using standard analytical techniques. The presence of test material in the samples is indicative of transdermal penetration.

Setting [1] is: 2% TPL in B with 0.5% imidazole derivative, Table 2, average of multiple determinations.
The mark [2] stands for this setting: multiple of average control determination of the same study, 2% TPL in B with 0.5% imidazole derivative, Table 2.

Structures can show the parent of a compound that is named as a salt. Where two headings read alike, the source gives them in different places.

For “1-cyanoethyl-2-phenylimidazole [1-CYANOETHYL-2-PHENYL IMIDAZOLE]”, the “24 hour penetration of tripelennamine HCl (total micrograms base)” value under setting [1] stood at 310 micrograms base. The “Increase in penetration relative to control” value under setting [2] is 2.6.

With `Cc1nccn1C` [1-2 DIMETHYL IMIDAZOLE, 1,2-dimethylimidazole], the “24 hour penetration of tripelennamine HCl (total micrograms base)” value was determined as 374 micrograms base and the “Increase in penetration relative to control” value is recorded as 4.3.

Consider `CC(C)=CCCC(C)=CCn1ccnc1` [1-(3,7-dimethyl-2,6-octadienyl) imidazole], for which the “24 hour penetration of tripelennamine HCl (total micrograms base)” value is recorded as 479 micrograms base and the “Increase in penetration relative to control” value was 2.6.

In the case of `c1ccc(Cn2ccnc2)cc1` [1-BENZYL IMIDAZOLE], the “24 hour penetration of tripelennamine HCl (total micrograms base)” value under setting [1] is 277 micrograms base. Also, the “Increase in penetration relative to control” value under setting [2] was 1.1.

With `Cc1nccn1Cc1ccccc1` [1-BENZYL-2-METHYL IMIDAZOLE], the “24 hour penetration of tripelennamine HCl (total micrograms base)” value is given as 463 micrograms base and the “Increase in penetration relative to control” value is listed as 1.8.

For `CCCCn1ccnc1` [1-BUTYL IMIDAZOLE], the “24 hour penetration of tripelennamine HCl (total micrograms base)” value is 497 micrograms base and the “Increase in penetration relative to control” value is given as 2.1.

As for `CCCCCCCCCCn1ccnc1` [1-DECYL IMIDAZOLE], the “24 hour penetration of tripelennamine HCl (total micrograms base)” value is 446 micrograms base and the “Increase in penetration relative to control” value was 3.7.

Take `CCCCCCCCCCCCn1ccnc1` [1-DODECYL IMIDAZOLE]: the “24 hour penetration of tripelennamine HCl (total micrograms base)” value worked out at 479 micrograms base and the “Increase in penetration relative to control” value worked out at 4.0.

On to `CC(C)n1ccnc1` [1-ISOPROPYL IMIDAZOLE], for which the “24 hour penetration of tripelennamine HCl (total micrograms base)” value came to 527 micrograms base and the “Increase in penetration relative to control” value is on record as 2.9.

With `Cn1ccnc1` [1-METHYL IMIDAZOLE], the “24 hour penetration of tripelennamine HCl (total micrograms base)” value under setting [1] is given as 728 micrograms base. Besides, the “Increase in penetration relative to control” value under setting [2] came out at 3.0.

For the molecule `c1ccc(-n2ccnc2)cc1` [1-PHENYL IMIDAZOLE], the “24 hour penetration of tripelennamine HCl (total micrograms base)” value under setting [1] is on record as 450 micrograms base. Under setting [2], the “Increase in penetration relative to control” value amounted to 1.8.

On to `Cc1ncc[nH]1` [2-METHYL IMIDAZOLE], for which the “24 hour penetration of tripelennamine HCl (total micrograms base)” value was found to be 615 micrograms base and the “Increase in penetration relative to control” value is 2.6.

Regarding `c1ccc(-c2ncc[nH]2)cc1` [2-PHENYL IMIDAZOLE], the “24 hour penetration of tripelennamine HCl (total micrograms base)” value under setting [1] worked out at 435 micrograms base. Further, under setting [2], the “Increase in penetration relative to control” value is reported as 1.7.

As to `CCCc1ncc[nH]1` [2-PROPYL IMIDAZOLE], the “24 hour penetration of tripelennamine HCl (total micrograms base)” value was determined as 554 micrograms base and the “Increase in penetration relative to control” value was determined as 2.2.

On to `CCCCCCCCCCCCCCCCCc1ncc[nH]1` [2-[…]], for which, under setting [1], the “24 hour penetration of tripelennamine HCl (total micrograms base)” value turned out to be 358 micrograms base. For the same molecule, the “Increase in penetration relative to control” value under setting [2] was determined as 1.5.

As to `Cc1nc[nH]c1CO` [4-(HYDROXYMETHYL) 5-METHYL IMIDAZOLE], the “24 hour penetration of tripelennamine HCl (total micrograms base)” value amounted to 149 micrograms base and the “Increase in penetration relative to control” value turned out to be 1.2.

As for `NNC(=O)c1c[nH]cn1` [4-CARBOXYLIC ACID HYDRAZIDE IMIDAZOLE], under setting [1], the “24 hour penetration of tripelennamine HCl (total micrograms base)” value was found to be 143 micrograms base. For the same molecule, the “Increase in penetration relative to control” value under setting [2] came out at 1.7.

On to `OCc1c[nH]cn1` [4-HYD[…], 4-hydroxymethyl imidazole], for which the “24 hour penetration of tripelennamine HCl (total micrograms base)” value under setting [1] is given as 224 micrograms base. In addition, the “Increase in penetration relative to control” value under setting [2] was found to be 3.2.

Turning to `Cc1c[nH]cn1` [4-METHYL IMIDAZOLE], the “24 hour penetration of tripelennamine HCl (total micrograms base)” value under setting [1] came out at 477 micrograms base. The “Increase in penetration relative to control” value under setting [2] stood at 3.9.

With `O=[N+]([O-])c1c[nH]cn1` [4-NITRO IMIDAZOLE], the “24 hour penetration of tripelennamine HCl (total micrograms base)” value was 142 micrograms base and the “Increase in penetration relative to control” value is reported as 1.2.

Regarding `c1ccc(-c2c[nH]cn2)cc1` [4-PHENYL IMIDAZOLE], under setting [1], the “24 hour penetration of tripelennamine HCl (total micrograms base)” value was 368 micrograms base. Besides, the “Increase in penetration relative to control” value under setting [2] came out at 3.0.

As to `CC(=O)Oc1ccccc1C(=O)O` [ASA, ASPIRIN, reference compound], the “24 hour penetration (total micrograms base)” value came to 87.5 micrograms base.

Regarding `N[C@H](Cc1c[nH]cn1)C(=O)O` [D-HISTIDINE, D-histidine], the “24 hour penetration of tripelennamine HCl (total micrograms base)” value was determined as 197 micrograms base and the “Increase in penetration relative to control” value was found to be 2.8.

On to `COc1ccc2c(c1)[C@]13CCCC[C@@H]1[C@H](C2)N(C)CC3` [DEX, DEXTRO[…], HBR, reference compound], for which the “24 hour penetration (total micrograms base)” value is 360 micrograms base (B + 2% DEX + 0.5% IPM + 0.5% IMI, Table 3 Study VIII) and 124 micrograms base (control: 2% of the drug alone in B, Table 3). The “Increase in penetration relative to control” value (multiple of average control determination, B + 2% DEX + 0.5% IPM + 0.5% IMI, Table 3 Study VIII) stood at 2.9.

With `NS(=O)(=O)c1cc2c(cc1Cl)NCNS2(=O)=O` [HCTZ, HYDROCHLOROTHIAZIDE, reference compound], the “24 hour penetration (total micrograms base)” value was found to be 1.7 micrograms base. The “Imidazole enhanced the transdermal penetration (fold)” value (5% HCTZ with 1% imidazole, Table 3 Study IX) is given as “five”.

In the case of `CC(C)Cc1ccc(C(C)C(=O)O)cc1` (stereo not drawn) [IBU, IBUPROFEN, reference compound], the “24 hour penetration (total micrograms base)” value turned out to be 378.0 micrograms base (B + 5% drug + 0.5% imidazole (IMI), Table 3) and 181.5 micrograms base (control: 5% of the drug alone in B, Table 3). Further, for the setting “multiple of average control determination, B + 5% drug + 0.5% IMI, Table 3”, the “Increase in penetration relative to control” value is 2.1.

Turning to `CC(C)NCC(O)c1cc(O)cc(O)c1` (stereo not drawn) [MET, METAPROTERENOL SULFATE, reference compound], the “24 hour penetration (total micrograms base)” value is recorded as 47.6 micrograms base.

Turning to `Cn1cc[nH]c1=S` [METHIMIDAZOLE, methimazole, reference compound], the “24 hour penetration of tripelennamine HCl (total micrograms base)” value was determined as 301 micrograms base and the “Increase in penetration relative to control” value stood at 3.5.

As for `NCCCn1ccnc1` [N-(3-AMINOPROPYL) IMIDAZOLE, N-(3-aminopropyl)imidazole], the “24 hour penetration of tripelennamine HCl (total micrograms base)” value is listed as 457 micrograms base and the “Increase in penetration relative to control” value is 2.5.

In the case of `CCC(=O)n1ccnc1` [N-PROPIONYL IMIDAZOLE], the “24 hour penetration of tripelennamine HCl (total micrograms base)” value is listed as 453 micrograms base and the “Increase in penetration relative to control” value is 2.5.

As for `O=C(/C=C/c1ccccc1)n1ccnc1` [N-TRANS-CINNAMOYL], the “24 hour penetration of tripelennamine HCl (total micrograms base)” value is recorded as 153 micrograms base and the “Increase in penetration relative to control” value is 1.8.

With `c1ccc2c(CC3=NCCN3)cccc2c1` [NAP, NAPHAZOLINE HCL, reference compound], the “24 hour penetration (total micrograms base)” value amounted to 161 micrograms base and the “Penetration enhanced by imidazole” value was 480%.

As to `CNC[C@H](O)c1cccc(O)c1` [PHE, PHENYLEPHRINE HCL, reference compound], the “24 hour penetration (total micrograms base)” value came out at 266 micrograms base.

Turning to `Cc1ccc(/C(=C\CN2CCCC2)c2ccccn2)cc1` [TRP, TRIPROLIDINE HCL, reference compound], the “24 hour penetration (total micrograms base)” value is reported as 180 micrograms base.
